# According to patent US8361802B2, “Fluorescent ozone sensor” (University of Pittsburgh—Of the Commonwealth System of …, priority 2009, dated 2013):
# What was measured:
# [1] = Indigo carmine with various ROS; settings: 12.5 μM indigo carmine
# Protocol: Indigo carmine with various ROS. The ROS experiments described above were repeated using indigo carmine (Solution B, [Indigo Carmine]final=12.5 μM in all cases) in triplicate. […] FIG. 6A is the Absorbance spectrum of indigo carmine. FIG. 6B is the ROS with indigo carmine. Error bars were determined from the calculated mean and standard deviation (Prism 5.0a, GraphPad Software, Inc.).
# [2] = Ozone detection in indoor air on adsorbent paper strips
# Protocol: One embodiment of the present invention can be a badge that contains compound 4 that may be worn by patients so their total ozone exposure can be continuously measured through the day. A proof-of-principle experiment was conducted with compound 4 and compound 1 as a comparative. A solution of compound 4 (500 nmol) in dimethylsulfoxide (DMSO) was absorbed on a piece of adsorbent paper and allowed to dry. The paper strips were stored in an office room that had two photocopiers and two laser printers. After eight hours, the paper strips were removed and placed in a vial that contained oH 7 buffer to elute the dyes. […] The deviation in these values is presumably because of photobleaching and the lack of specificity of compound 1 towards various ROS, including singlet oxygen.
# Ozone detection in indoor air. FIG. 10 are photographic illustrations of results of Ozone detection tests in indoor air using the present invention. The top photograph is a Kimwipe® before placing into photocopy room for 8 hours. The bottom photographs are a Kimwipe® in buffer for absorbance and fluorescence measurement, wherein the left photograph is an indigo carmine taken in room light), and the right photograph is compound 4 taken under long-range UV lamp. One adsorbent paper (Kimwipe®) was cut into two 11×9 cm pieces. Solution A (50 μL, 500 nmol of compound 4) was added to one portion of the Kimwipe® and allowed to dry (FIG. 10, top right). Solution B (50 μL, 500 nmol of indigo carmine) was added to the other portion of the Kimwipe® and allowed to dry (FIG. 10, top left). After overnight drying in a laboratory drawer, the paper strips were moved to a poorly ventilated photocopy room (2 photocopiers and 2 laser printers) for 8 hours. The controls remained in the laboratory drawer. After 8 hours, the samples were placed into a scintillation vial, and the dyes were eluted with pH 7 buffer (6.0 mL) (˜5 min) before fluorescence and absorbance measurement. […] FIGS. 3C-D error bars were determined from the calculated mean and standard deviation (Prism 5.0a, GraphPad Software, Inc.).
# [3] = tested on: Human bronchial epithelial cells (BEAS-2B); test: Live-cell imaging of human bronchial epithelial cells; type: cell-based
# Protocol: Human bronchial epithelial cells (BEAS-2B) (American Type Culture Collectin) were grown in LHC-9 medium (Invitrogen) on glass-bottomed Petri dishes (MatTek) precoated with 0.01 mg ml^−1 of human fibronectin (Invitrogen), 0.029 mg ml^−1 Vitrogen 100 (Cohesion) and 0.01 mg ml^−1 bovine serum albumin (Invitrogen) in LHC-9 medium. Immediately prior to imaging, cells were rinsed with Hank's balanced salt solution, which contained calcium and magnesium, and placed inside a temperature-controlled, airtight environmental chamber and maintained at 37° C. and 5% CO2. Images were obtained using a Nikon TE2000E-PFS (Perfect focus system) microscope equipped with a […] oil-immersion objective (Nikon, CFI PlanFluor, NA 1.3) and a fluorescien isothiocyanate longpass filter set (Chroma), a Q-Imaging SRV CCD camera (Q-imaging) and MetaMorph software (Molecular Devices). The motorized XYZ stage used was made by ASA (Eugege). Baseline images were collected before the addition of compound 8 and time-lapsed images obtained at 30 second intervals after the addition of compound 8 (250 nM). Once stage baseline had been achieved, multiple washes were carried out and the media replaced. The cells were then exposed to ozone (˜2.1 ppm) and monitored every 30 seconds for 15 minutes. Ozone was generated from medical grade oxygen (Valley Gas) via a model V1-0 ultraviolet ozonator (OREC) and analyzed with a Dasibi (Glendale) direct-reading instrument. Ozone concentrations were maintained by adjusting both the intensity of the ultraviolet light and the flow rate of oxygen. For each experiment, images were collected from six stages, with a minimum of five cells per position (a minimum of 30 cells per […]).
# In another embodiment of the invention, human bronchial epitelial cells were incubated with compound 4 to determine ozone's role in cell biology. […] Based on studies why compound 4 and structurally related compounds are not fluorescent, it is believed that the hydroxymethyl group 4 may have been oxidized to give a more electron-withdrawing group, possible a carboxyl or aldehyde group, and so emit a strong fluorescence signal. To circumvent such an oxidation event, compound 8 was prepared specific for ozone. […] Once a steady baseline signal had been established and maintained for five minutes, ozone gas was generated within the airtight environmental chamber that housed the cell-culture dishes, and fluorescent signals were monitored using live-cell microscopy for approximately 15 minutes.
# FIGS. 16A-H are photographs of live-cell imaging of human bronchial epithelial cells in the presence of ozone using compound 8. The left-hand panels (FIGS. A-E) are pseudocolour images that indicate the changes in emission intensity over time, and the right-hand panels show differential interference contrast images of the bronchial epithelial cells. FIG. 16A is before the addition of compound 8 (0 seconds). FIG. 16B illustrates the cell at 107 seconds that is a steady state intensity reached with compound 8 at 250 nM. FIG. 16C illustrates the cell at 326 seconds when ozone flow is started. FIG. 16D illustrates the cell at 536 seconds with the emission intensity increasing. FIG. 16E illustrates the cell at 675 seconds when emission maximum is reached. FIG. 16F illustrates the cell at 820 seconds when the cell starts to die. FIG. 16G illustrates the cell at 969 seconds where the cell emission continues to fall. FIG. 16H illustrates the cell at 1148 seconds when the ozone flow is stopped.
# [4] = Fluorescence spectroscopy of the compounds; type: physicochemical
# Protocol: Fluorescence spectroscopy. Fluorescence spectra were recorded in a 1×1-cm disposable cuvette (VWR; catalog number 58017-880) on a Jobin Yvon FluoroMax-3 spectrometer under the control of a Windows-based PC running FluorEssence software. The samples were excited at 497 nm and the emission intensities were collected at 523 nm. All spectra were corrected for emission intensity using the manufacturer supplied photomultiplier curves.
# FIGS. 4A-H illustrate absorbance and fluorescence emission of compounds 4, 7, 8, and S1, wherein fluorescence and emission spectra were measured in 0.1% DMSO in pH 7 buffer. FIG. 4A is absorbance spectrum of compound 4. FIG. 4B is Emission spectrum of compound 4. FIG. 4C is Absorbance spectrum of compound 7. FIG. 4D is Emission spectrum of compound 7. FIG. 4E is Absorbance spectrum of compound 8. FIG. 4F is Emission spectrum of compound 8. FIG. 4G is Absorbance spectrum of compound S1. FIG. 4H is Emission spectrum of compound S1.
# [5] = Cytotoxicity against HeLa cells (MTS assay); type: cell-based; settings: human, 2000 cells/well, 10 nM to 200 μM, read-out: 1050 (cytotoxicity)
# Protocol: FIG. 4J is the cytotoxicity of compound 8 against HeLa cells seeds at a density of 2000 cells/well is a 96-well plate;
# FIG. 4I is the ROS with compound 8. The experiment was performed in duplicate. Error bars were determined from the calculated mean and standard deviation (Prism 5.0a, GraphPad Software, Inc.). FIG. 4J is the cytotoxicity of compound 8 against HeLa cells seeds at a density of 2000 cells/well is a 96-well plate. Concentrations of compound 8 ranged from 10 nM to 200 μM. The assay was performed for 3 days, and the relative cell density was determined by an MTS assay (Promega CellTiter 96® AQueous Non-Radioactive Cell Proliferation Assay).
SMILES,decrease in absorbance at 610 nm with nearly all ROS [1],"decrease in absorbance at 610 nm ([2]; 500 nmol on adsorbent paper, photocopy room, eight hours) [%]",consumption of compound 1 ([2]; correlated from decrease in absorbance at 610 nm) [nmol],"fluorescent emissions inside the cells after ozone generation ([3]; 250 nM, ozone ~2.1 ppm, about 15 minutes)","time at which emission maximum is reached ([3]; 250 nM, ozone flow started at 326 seconds) [s]","fluorescence inside the cells in the absence of external ozone ([3]; human bronchial epithelial cells, no external ozone)",fluorescence of the probe itself [4],IC50 at 3 days [5] [µM]
"O=C1/C(=C2\Nc3ccc(S(=O)(=O)[O-])cc3C2=O)Nc2ccc(S(=O)(=O)[O-])cc21.[Na+].[Na+] [compound 1, indigo carmine]",11-70%,77,387,,,,,
C=CCCOc1cc2oc3cc(=O)c(Cl)cc-3c(-c3ccccc3C)c2cc1Cl [compound 8],,,,time-dependent increase in fluorescent emissions occurred inside the cells,675,remained weakly fluorescent within the cells,nearly non-fluorescent,43
